What was measured:
Assay in all cases: relative viability (nuclei count vs DMSO), 5 days (fraction); higher = more cells survive
[1] = compound: C=CC(=O)N1CCC[C@@H](n2nc(-c3ccc(Oc4ccccc4)cc3)c3c(N)ncnc32)C1 [Ibrutinib] + CCNC(=O)c1noc(-c2cc(C(C)C)c(O)cc2O)c1-c1ccc(CN2CCOCC2)cc1 [Luminespib] (partner 0.01 µM)
Summary of the method: (§1)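 One day after seeding in 1536-well plates, lung cancer cell lines were dosed by pin tool. Dosing was either single-drug or a fixed anchor-drug dose plus five library-drug doses (not always all listed) in √10 steps. After 5 days, nuclei were stained in one fix-and-stain step and counted on 4× images, and relative viability is the nuclei count of treated wells over that of vehicle wells, given as the median of duplicate plates.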

[2] = compound: C=CC(=O)N1CCC[C@@H](n2nc(-c3ccc(Oc4ccccc4)cc3)c3c(N)ncnc32)C1 [Ibrutinib] + Nc1nc2[nH]cc(CCc3ccc(C(=O)N[C@@H](CCC(=O)O)C(=O)O)cc3)c2c(=O)[nH]1 [Pemetrexed] (partner 0.2 µM)
Summary of the method: as §1

[3] = compound: C=CC(=O)Nc1cc(-n2c(=O)ccc3cnc4ccc(-c5ccc(NS(C)(=O)=O)cc5)cc4c32)ccc1C [BMX-IN-1] + COc1cc2c(Oc3ccc(NC(=O)C4(C(=O)Nc5ccc(F)cc5)CC4)cc3F)ccnc2cc1OCCCN1CCOCC1 [Foretinib] (partner 0.25 µM)
Summary of the method: as §1

[4] = compound: C=CCc1cccc(/C=N/NC(=O)CN2CCN(Cc3ccccc3)CC2)c1O [PAC-1] + COc1cccc2cc(-c3nc([C@H]4CC[C@H](C(=O)O)CC4)n4ncnc(N)c34)[nH]c12 [OSI-027] (partner 0.5 µM)
Summary of the method: as §1

Cell Line | relative viability ([1]; first compound 0.005 µM) | relative viability ([1]; first compound 0.01581 µM) | relative viability ([1]; first compound 0.05 µM) | relative viability ([1]; first compound 0.1581 µM) | relative viability ([1]; first compound 0.5 µM) | relative viability ([2]; first compound 0.005 µM) | relative viability ([2]; first compound 0.01581 µM) | relative viability ([2]; first compound 0.05 µM) | relative viability ([2]; first compound 0.1581 µM) | relative viability ([2]; first compound 0.5 µM) | relative viability ([3]; first compound 0.02 µM) | relative viability ([3]; first compound 0.2 µM) | relative viability ([3]; first compound 0.6325 µM) | relative viability ([3]; first compound 2 µM) | relative viability ([4]; first compound 0.02 µM) | relative viability ([4]; first compound 0.06325 µM) | relative viability ([4]; first compound 0.2 µM) | relative viability ([4]; first compound 2 µM)
NCI-H1915 | 0.824 | 0.85 | 0.819 | 0.857 | 0.69 | 0.532 | 0.599 | 0.587 | 0.513 | 0.715 | 1.16 | 1.25 | 1.12 | 1.07 | 0.603 | 0.621 | 0.592 | 0.586
NCI-H2023 | 0.671 | 0.678 | 0.665 | 0.737 | 0.907 | 0.208 | 0.219 | 0.293 | 0.248 | 0.396 | 0.928 | 1.12 | 1.06 | 0.926 | 0.429 | 0.404 | 0.333 | 0.357
NCI-H1755 | 0.318 | 0.617 | 0.55 | 0.313 | 0.531 | 0.42 | 0.481 | 0.475 | 0.456 | 0.516 | 0.833 | 0.891 | 1.05 | 0.905 | 0.717 | 0.722 | 0.601 | 0.72
EPLC-272H | 0.485 | 0.433 | 0.211 | 0.313 | 0.211 | 0.317 | 0.325 | 0.412 | 0.268 | 0.344 | 0.851 | 0.759 | 0.622 | 0.592 | 0.312 | 0.27 | 0.22 | 0.262
NCI-H1793 |  | 0.155 | 0.196 | 0.177 | 0.151 | 0.526 | 0.877 | 0.664 | 0.515 | 0.501 | 0.856 | 0.856 | 0.656 | 0.699 | 0.249 | 0.277 | 0.311 | 0.247
NCI-H358 | 0.366 | 0.253 | 0.306 | 0.267 | 0.174 | 0.165 | 0.18 |  | 0.171 | 0.16 | 0.855 | 0.777 | 0.887 | 0.701 | 0.7 | 0.632 | 0.693 | 0.631
HCC-827 | 0.657 | 0.355 | 0.589 | 0.673 | 0.212 | 0.22 | 0.248 | 0.24 | 0.246 | 0.168 | 1.01 | 1.02 | 1.03 | 1.03 | 0.763 | 0.692 | 0.703 | 0.792
NCI-H2085 | 0.349 | 0.465 | 0.504 | 0.489 | 0.447 | 0.878 | 0.828 | 0.759 | 0.621 | 0.671 | 0.978 | 0.847 | 0.763 | 0.804 | 0.755 | 0.713 | 0.66 | 0.754
LCLC-97TM1 | 0.795 | 0.656 | 0.798 | 0.867 | 0.735 | 0.234 | 0.208 | 0.22 | 0.232 | 0.249 | 1.01 | 0.917 | 1.03 | 1.1 | 0.436 | 0.536 | 0.453 | 0.449
EKVX | 0.66 | 0.784 | 0.856 | 0.81 | 0.547 | 0.33 | 0.419 | 0.359 | 0.336 | 0.222 | 0.784 | 0.902 | 0.965 | 0.893 | 0.744 | 0.674 | 0.696 | 0.702
PC-14 | 0.167 | 0.266 | 0.135 | 0.127 | 0.179 | 0.157 | 0.138 | 0.133 | 0.121 | 0.201 | 1.04 | 1.05 | 1.16 | 0.922 | 1.07 | 0.727 | 0.779 | 0.911
NCI-H1355 | 0.55 | 0.648 | 0.715 | 0.858 | 0.517 |  | 0.944 | 0.987 | 1.06 | 0.951 | 1.1 | 1.15 | 0.921 | 0.977 | 0.403 | 0.436 | 0.404 | 0.438
NCI-H2009 | 1.07 | 1.06 | 1.07 | 1.02 | 1.05 | 1.08 | 1.06 | 1.16 | 1.11 | 1.22 | 1.38 | 1.26 | 1.24 | 1.28 | 0.645 | 0.614 | 0.582 | 0.669
HARA | 0.975 | 0.748 | 0.548 | 0.746 | 0.324 | 0.243 | 0.22 | 0.249 | 0.207 | 0.242 | 1.43 | 1.27 | 0.936 | 0.799 | 0.487 | 0.54 | 0.426 | 0.504
H3255 | 1.13 | 0.945 |  | 1.19 | 0.704 | 0.511 | 0.553 | 0.456 | 0.557 | 0.407 | 0.859 | 0.989 | 0.925 | 0.99 | 0.604 | 0.487 | 0.558 | 0.611
SW 1573 | 0.419 | 0.382 | 0.198 | 0.288 | 0.582 |  | 0.917 | 0.968 | 0.88 | 1.25 | 0.953 | 0.947 | 1.02 | 0.337 | 0.642 | 0.613 | 0.606 | 0.791
SW 900 |  |  | 0.159 | 0.175 | 0.19 | 0.456 | 0.48 | 0.478 | 0.482 | 0.49 | 0.815 | 0.944 | 0.757 | 0.802 | 0.69 | 0.828 | 0.572 | 0.496
NCI-H1666 | 0.951 | 0.975 | 0.956 | 1.08 | 0.784 | 0.716 | 0.984 | 0.793 | 0.859 | 0.871 | 0.959 | 1.04 | 1.03 | 0.935 | 0.848 | 0.866 | 0.777 | 0.849

From the supplement of paper PMC10307832
